Experiments:
MCL-1 = MCL-1 (Homo sapiens (Human), UniProt Q07820); test: Cell free Mcl-1:Bim affinity assay (fluorescence polarization competition); type: binding; details: 15 nM MCL-1, 5 nM FITC-Bim, 1 hour at room temperature; class symbols; read-out: BIM_Ki
Protocol: The binding affinity of each compound was measured via a fluorescence polarization competition assay, in which the compound competes for the same binding site with the ligand, and thus leads to a dose-dependent anisotropy reduction. The tracer ligand utilized was a fluorescein isothiocyanate labelled peptide (FITC-[…]) derived from Bim (GenScript).
The assay was carried out in black half-area 96-well NBS plate (Corning), containing 15 nM of MCL-1 (BPS Bioscience), 5 nM of FITC-Bim and 3-fold serial diluted test compounds in a total volume of 50 μL of assay buffer (20 mM HEPES, 50 mM NaCl, 0.002% Tween 20, 1 mM TCEP, and 1% DMSO). The reaction plate was incubated for 1 hour at room temperature. The change of anisotropy is measured with an Envision multimode plate reader (PerkinElmer) at emission wavelength 535 nm. Fluorescence polarization was calculated in mP unit and the percentage inhibition was calculated by % inhibition=100×(mPDMSO−mP)/(mPDMSO−mPPC), in which mPDMSO is the DMSO control, and mPpc is the positive control. IC50 values were determined from a 10-point dose response curve by fitting the percent inhibition against compound concentration using the GraphPad Prism software. The inhibition constant Ki was subsequently calculated according to the Nikolovska-Coleska's equation (Anal. Biochem., 2004, 332, 261),
[formula] • where [I]50 is the concentration of the free inhibitor at 50% inhibition, [L]50 is the concentration of the free labeled ligand at 50% inhibition, [P]0 is the concentration of the free protein at 0% inhibition, and Kd is the dissociation constant of the protein-ligand complex. See Table F. Caspase 3/7 Activity Assay

H929 cells = test: Cell viability assay (H929 10 FBS); type: cell-based; details: Homo sapiens, NCI-H929, 24 hours, read-out: H929_10FBS IC50
Protocol: Cell Viability Assay (H929 10 FBS)
Dispense 10 μL aliquot of prepared H929 cells (1:1 ratio of cells:Trypan Blue (#1450013, Bio-Rad)) onto cell counting slide (#145-0011, Bio-Rad) and obtain cell density and cell viability using cell counter (TC20, Bio-Rad). Remove appropriate volume of resuspended cells from culture flask to accommodate 4000 cells/well @ 10 μL/well. Transfer H929 cells to 50 mL conical (#430290, Corning). Spin down at 1000 rpm for 5 min using tabletop centrifuge (SPINCHRON 15, Beckman). Discard supernatant and resuspend cell pellet in modified RPMI 1640 (#10-040-CV, Corning) cell culture media containing 10% FBS (F2422-500 ML, Sigma), sodium pyruvate (100 mM) (#25-000-CL, Corning), HEPES buffer (1 M) (#25-060-CL, Corning) and glucose (200 g/L) (A24940-01, Gibco) to a cell density of 400,000 cells/mL. Dispense 10 μL of resuspended H929 cells per well in 384-well small volume TC treated plate (#784080, Greiner Bio-one) using standard cassette (#50950372, Thermo Scientific) on Multi-drop Combi (#5840310, Thermo Scientific) in laminar flow cabinet. Dispense compounds onto plates using digital liquid dispenser (D300E, Tecan). Incubate plates in humidified tissue culture incubator @ 37° C. for 24 hours. Add 10 μL of prepared CellTiTer-Glo® detection buffer (G7570, Promega) or ATPlite 1 Step detection reagent (#6016731, Perkin Elmer) to each well of 384-well plate using small tube cassette (#24073295, Thermo Scientific) on Combi multi drop, incubate @ RT for 30-60 min. Read plates with microplate reader (PheraStar, BMG Labtech) using 384 well luminescence mode.

Chain of MCL-1 (Q07820 whole entry): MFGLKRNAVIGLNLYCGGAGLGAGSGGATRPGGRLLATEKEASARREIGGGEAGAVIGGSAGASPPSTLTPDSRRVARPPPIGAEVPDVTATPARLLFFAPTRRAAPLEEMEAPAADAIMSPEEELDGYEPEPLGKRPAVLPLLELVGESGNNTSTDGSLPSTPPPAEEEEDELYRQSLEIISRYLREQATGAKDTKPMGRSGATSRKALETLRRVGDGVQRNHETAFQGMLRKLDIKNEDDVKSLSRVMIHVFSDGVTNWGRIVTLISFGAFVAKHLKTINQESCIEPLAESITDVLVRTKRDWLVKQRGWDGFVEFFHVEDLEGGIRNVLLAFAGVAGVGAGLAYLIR

Ki (MCL-1) | IC50 (H929 cells) | Structure (SMILES)
1 to 100 nM | > 1000 nM | CN(C)C(=O)OC1CCCOC(C)(C)C(=O)NS(=O)(=O)c2ccc3c(c2)N(C[C@@H]2CC[C@@H]12)C[C@@]1(CCCc2cc(Cl)ccc21)CO3 (stereo partly drawn) [Example 286, [(3R,6R,22S)-6′-Chloro-12,12-dimethyl-13,15,15-trioxo-spiro[11,20-dioxa-15-thia-1,14-diazatetracyclo[14.7.2.03,6.019,24]pentacosa-16,18,24-triene-22,1′-tetralin]-7-yl] N,N-dimethylcarbamate]
1 to 100 nM | < 1000 nM | CO[C@@H]1/C=C/CN(C)[C@H](C)C(=O)NS(=O)(=O)c2ccc3c(c2)N(C[C@@H]2CC[C@H]21)C[C@@]1(CCCc2cc(Cl)ccc21)CO3 [Example 123, (3R,6R,7R,8E,12R,22S)-6′-Chloro-7-methoxy-11,12-dimethyl-15,15-dioxo-spiro[20-oxa-15-thia-1,11,14-triazatetracyclo[14.7.2.03,6.019,24]pentacosa-8,16(25),17,19(24)-tetraene-22,1′-tetralin]-13-one]
1 to 100 nM | > 1000 nM | CN(C)C(=O)O[C@H]1/C=C\COC(C)(C)C(=O)NS(=O)(=O)c2ccc3c(c2)N(C[C@@H]2CC[C@H]21)C[C@@]1(CCCc2cc(Cl)ccc21)CO3 [Example 35, [(3R,6R,7S,8Z,22S)-6′-Chloro-12,12-dimethyl-13,15,15-trioxo-spiro[11,20-dioxa-15-thia-1,14-diazatetracyclo[14.7.2.03,6.019,24]pentacosa-8,16,18,24-tetraene-22,1′-tetralin]-7-yl] N,N-dimethylcarbamate]
< 1 nM | < 1000 nM | CO[C@@H]1/C=C/C[C@H](C)[C@@H](CC(=O)N2CCOCC2)C(=O)NS(=O)(=O)c2ccc3c(c2)N(C[C@@H]2CC[C@H]21)C[C@@]1(CCCc2cc(Cl)ccc21)CO3 [Example 92, (3R,6R,7R,8E,11S,12R,22S)-6′-Chloro-7-methoxy-11-methyl-12-(2-morpholino-2-oxo-ethyl)-15,15-dioxo-spiro[20-oxa-15-thia-1,14-diazatetracyclo[14.7.2.03,6.019,24]pentacosa-8,16,18,24-tetraene-22,1′-tetralin]-13-one]
1 to 100 nM | > 1000 nM | CO[C@@H]1/C=C/CN[C@H](C)C(=O)NS(=O)(=O)c2ccc3c(c2)N(C[C@@H]2CC[C@H]21)C[C@@]1(CCCc2cc(Cl)ccc21)CO3 [Example 121, (3R,6R,7R,8E,12R,22S)-6′-Chloro-7-methoxy-12-methyl-15,15-dioxo-spiro[20-oxa-15-thia-1,11,14-triazatetracyclo[14.7.2.03,6.019,24]pentacosa-8,16(25),17,19(24)-tetraene-22,1′-tetralin]-13-one]
1 to 100 nM | > 1000 nM | CO[C@@H]1/C=C/CN(C)CC2(CCC2)C(=O)NS(=O)(=O)c2ccc3c(c2)N(C[C@@H]2CC[C@H]21)C[C@@]1(CCCc2cc(Cl)ccc21)CO3 [Example 27, (3R,6R,7R,8E,23S)-6′-Chloro-7-methoxy-11-methyl-13,13-(1,3-propylene)-16,16-dioxo-spiro[21-oxa-16-thia-1,11,15-triazatetracyclo[15.7.2.03,6.020,25]hexacosa[8,17(26),18,20(25)]tetraene-23,1′-tetralin]-14-one]
1 to 100 nM | > 1000 nM | CO[C@H]1CCCCC(=O)NS(=O)(=O)c2ccc3c(c2)N(C[C@@H]2CC[C@H]21)C[C@@]1(CCCc2cc(Cl)ccc21)CO3 [Example 77, (3R,6R,7S,21S)-6′-Chloro-7-methoxy-14,14-dioxo-spiro[19-oxa-14-thia-1,13-diazatetracyclo[13.7.2.03,6.018,23]tetracosa-15,17,23-triene-21,1′-tetralin]-12-one]
< 1 nM | < 500 nM | CN(C)CCN(C)C(=O)O[C@H]1/C=C/CN(C)C(C)(C)C(=O)NS(=O)(=O)c2ccc3c(c2)N(C[C@@H]2CC[C@H]21)C[C@@]1(CCCc2cc(Cl)ccc21)CO3 [Example 213, [(3R,6R,7S,8E,22S)-6′-Chloro-11,12,12-trimethyl-13,15,15-trioxo-spiro[20-oxa-15-thia-1,11,14-triazatetracyclo[14.7.2.03,6.019,24]pentacosa-8,16,18,24-tetraene-22,1′-tetralin]-7-yl] N-[2-(dimethylamino)ethyl]-N-methyl-carbamate]
1 to 100 nM | > 1000 nM | CO[C@@H]1CCCCC(=O)NS(=O)(=O)c2ccc3c(c2)N(C[C@@H]2CC[C@H]21)C[C@@]1(CCCc2cc(Cl)ccc21)CO3 [Example 76, (3R,6R,7R,21S)-6′-Chloro-7-methoxy-14,14-dioxo-spiro[19-oxa-14-thia-1,13-diazatetracyclo[13.7.2.03,6.018,23]tetracosa-15,17,23-triene-21,1′-tetralin]-12-one]
1 to 100 nM | > 1000 nM | CN(C)C(=O)N(C)[C@H]1/C=C/COC(C)(C)C(=O)NS(=O)(=O)c2ccc3c(c2)N(C[C@@H]2CC[C@H]21)C[C@@]1(CCCc2cc(Cl)ccc21)CO3 [Example 257, 1,1,3-Trimethyl-3-[(3R,6R,7S,8E,22S)-6′-chloro-12,12-dimethyl-13,15,15-trioxo-spiro[11,20-dioxa-15-thia-1,14-diazatetracyclo[14.7.2.03,6.019,24]pentacosa-8,16(25),17,19(24)-tetraene-22,1′-tetralin]-7-yl]urea]
1 to 100 nM | > 1000 nM | CO[C@H]1/C=C/CCC(=O)NS(=O)(=O)c2ccc3c(c2)N(C[C@@H]2CC[C@H]21)C[C@@]1(CCCc2cc(Cl)ccc21)CO3 [Example 75, (3R,6R,7S,8E,21S)-6′-Chloro-7-methoxy-14,14-dioxo-spiro[19-oxa-14-thia-1,13-diazatetracyclo[13.7.2.0˜3,6.0˜18,23]tetracosa-8,15,17,23-tetraene-21,1′-tetralin]-12-one]
< 1 nM | < 500 nM | CC1(C)OC/C=C/[C@H](OC(=O)N[C@@H]2CCOC2)[C@@H]2CC[C@H]2CN2C[C@@]3(CCOc4cc(Cl)ccc43)COc3ccc(cc32)S(=O)(=O)NC1=O [Example 302, [(3R,6R,7S,8E,22S)-7′-Chloro-12,12-dimethyl-13,15,15-trioxo-spiro[11,20-dioxa-15-dioxa-15-thia-1,14-diazatetracyclo[14.7.2.03,6.019,24]pentacosa-8,16,18,24-tetraene-22,4′-chromane]-7-yl] N-[(3R)-tetrahydrofuran-3-yl]carbamate]
< 1 nM | < 500 nM | CO[C@@H]1CCN(CCO[C@H]2/C=C/COC(C)(C)C(=O)NS(=O)(=O)c3ccc4c(c3)N(C[C@@H]3CC[C@H]32)C[C@@]2(CCCc3cc(Cl)ccc32)CO4)C1 [Example 260, (3R,6R,7S,8E,22S)-6′-Chloro-7-[2-[(3R)-3-methoxypyrrolidin-1-yl]ethoxy]-12,12-dimethyl-15,15-dioxo-spiro[11,20-dioxa-15-thia-1,14-diazatetracyclo[14.7.2.03,6.019,24]pentacosa-8,16,18,24-tetraene-22,1′-tetralin]-13-one]
< 1 nM | < 500 nM | CN(C(=O)O[C@H]1/C=C/CN(C)C2(CCC2)C(=O)NS(=O)(=O)c2ccc3c(c2)N(C[C@@H]2CC[C@H]21)C[C@@]1(CCCc2cc(Cl)ccc21)CO3)C1CCOCC1 [Example 239, [(3R,6R,7S,8E,22S)-6′-Chloro-11-methyl-12,12-(1,3-propylene)-13,15,15-trioxo-spiro[20-oxa-15-thia-1,11,14-triazatetracyclo[14.7.2.03,6.019,24]pentacosa-8,16,18,24-tetraene-22,1′-tetralin]-7-yl] N-methyl-N-tetrahydropyran-4-yl-carbamate]

— US11130769B2 (Prelude Therapeutics Incorporated, priority 2018, dated 2021)
